According to ChEMBL document CHEMBL1201862, “PubChem BioAssay data set” (2004):
Calls of active or inactive are those of the source. Rule as the data show it, for most assays here: actives have a measured IC50 and inactives only a lower limit.

Assays:
[1] = biological target: DNA dC->dU-editing enzyme APOBEC-3G (Homo sapiens, UniProt Q9HC16); assay: Dose Response confirmation of small molecule APOBEC3G DNA Deaminase Inhibitors via a fluorescence-based single-stranded DNA deaminase assay. [Related pubchem assays (depositor defined):AID493012, AID493028]; type: functional
Chain of DNA dC->dU-editing enzyme APOBEC-3G (Q9HC16 whole entry): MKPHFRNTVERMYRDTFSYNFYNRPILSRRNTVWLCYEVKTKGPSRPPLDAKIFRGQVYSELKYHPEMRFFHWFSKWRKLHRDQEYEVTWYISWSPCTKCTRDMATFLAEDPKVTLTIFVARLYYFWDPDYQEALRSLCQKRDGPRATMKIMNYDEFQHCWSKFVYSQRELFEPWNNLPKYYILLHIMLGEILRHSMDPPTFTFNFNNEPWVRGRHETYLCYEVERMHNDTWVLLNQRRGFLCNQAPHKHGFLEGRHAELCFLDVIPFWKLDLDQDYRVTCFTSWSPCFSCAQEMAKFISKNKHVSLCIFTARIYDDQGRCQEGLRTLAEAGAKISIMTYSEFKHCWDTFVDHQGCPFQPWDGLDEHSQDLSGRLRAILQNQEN

[2] = biological target: T1, Ubiquitin-conjugating enzyme E2 N (Homo sapiens, UniProt P61088); type: functional;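 also: Dose-response confirmation in a TR-FRET assay detecting UBC13-driven polyubiquitin chain formation, inhibition measured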
T1 sequence (P61088 whole entry): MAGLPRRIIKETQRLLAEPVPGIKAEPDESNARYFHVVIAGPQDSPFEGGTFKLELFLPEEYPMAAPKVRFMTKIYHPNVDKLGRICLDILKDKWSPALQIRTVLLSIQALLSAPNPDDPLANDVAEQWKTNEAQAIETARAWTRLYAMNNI

[3] = biological target: Glyceraldehyde-3-phosphate dehydrogenase (Homo sapiens, UniProt P04406)
Chain of Glyceraldehyde-3-phosphate dehydrogenase (P04406 whole entry): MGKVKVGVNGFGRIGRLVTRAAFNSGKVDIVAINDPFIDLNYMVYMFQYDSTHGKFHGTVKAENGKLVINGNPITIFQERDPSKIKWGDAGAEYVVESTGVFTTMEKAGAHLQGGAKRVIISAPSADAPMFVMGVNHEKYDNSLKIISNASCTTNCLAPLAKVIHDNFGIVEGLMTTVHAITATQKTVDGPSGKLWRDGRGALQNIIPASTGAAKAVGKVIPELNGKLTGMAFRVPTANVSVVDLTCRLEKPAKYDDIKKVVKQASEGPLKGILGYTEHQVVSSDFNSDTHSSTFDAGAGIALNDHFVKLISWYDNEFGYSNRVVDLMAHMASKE

[4] = biological target: T2, Leucine aminopeptidase (Plasmodium falciparum 3D7, UniProt Q8IL11); assay: P. falciparum M17LAP inhibitors, primary screen, biochemical, fluorogenic H-Leu-NHMec substrate, 1536-well (AID 1619); type: functional
T2 sequence (Q8IL11 whole entry): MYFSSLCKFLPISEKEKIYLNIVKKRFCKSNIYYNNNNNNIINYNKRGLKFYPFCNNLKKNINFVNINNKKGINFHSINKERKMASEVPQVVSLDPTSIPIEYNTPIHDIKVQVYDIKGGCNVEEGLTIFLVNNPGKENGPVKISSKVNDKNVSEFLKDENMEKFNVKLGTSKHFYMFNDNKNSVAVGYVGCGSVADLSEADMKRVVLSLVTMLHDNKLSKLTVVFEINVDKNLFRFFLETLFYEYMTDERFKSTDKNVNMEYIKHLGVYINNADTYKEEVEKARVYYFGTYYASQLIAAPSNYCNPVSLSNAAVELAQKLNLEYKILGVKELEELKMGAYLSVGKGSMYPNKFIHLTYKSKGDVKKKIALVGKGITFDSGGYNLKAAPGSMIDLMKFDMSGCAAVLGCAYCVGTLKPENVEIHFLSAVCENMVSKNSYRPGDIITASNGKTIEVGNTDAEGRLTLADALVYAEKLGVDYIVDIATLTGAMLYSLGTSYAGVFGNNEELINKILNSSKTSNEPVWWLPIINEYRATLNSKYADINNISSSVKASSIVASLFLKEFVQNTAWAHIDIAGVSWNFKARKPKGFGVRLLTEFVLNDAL

SMILES | IC50 [3] | IC50 [4] | other results
N=C(N)Nc1ccc2[nH]c3c(c2c1)C[C@@]1(O)[C@H]2Cc4ccc(O)c5c4[C@@]1(CCN2CC1CC1)[C@H]3O5 |  |  | IC50 [1]: 24.4 µM (active); IC50 [2]: > 20 µM (inactive)
CCN1CCN(C2=C(Cl)C(=O)N(c3cccc(C)c3)C2=O)CC1 | > 50 µM (inconclusive) |  | 
O=C(CSc1nnc[nH]1)Nc1ccc2c(c1)CCC2 |  | 22.3 µM (active) | 
CCOc1ccc(C(CC(=O)O)C(=O)O)cc1 (stereo unspecified) | > 100 µM (not active) |  | 
Cc1ccc(NC(=O)CSc2ncc(S(=O)(=O)c3ccccc3)c(O)n2)cc1C |  | 4.56 µM (active) | 
